Each block holds one molecule with its values, some of them ahead of it.
Assays:
[1] = tested on: angiogenesis in mouse tumor specimens; conditions: high concentration; cited from earlier work
MDA-MB-231 xenograft = conditions: SCID mice, 17 and 50 mg kg^−1, compared to control; cited from earlier work
[2] = tested on: vascular endothelial growth factor (VEGF); conditions: high concentration; cited from earlier work
[3] = molecular target: hypoxia-inducible factor (HIF) 1α (Homo sapiens, UniProt Q16665); conditions: high concentration, human breast cancer cells; cited from earlier work
Sequence of hypoxia-inducible factor (HIF) 1α (Q16665 whole entry): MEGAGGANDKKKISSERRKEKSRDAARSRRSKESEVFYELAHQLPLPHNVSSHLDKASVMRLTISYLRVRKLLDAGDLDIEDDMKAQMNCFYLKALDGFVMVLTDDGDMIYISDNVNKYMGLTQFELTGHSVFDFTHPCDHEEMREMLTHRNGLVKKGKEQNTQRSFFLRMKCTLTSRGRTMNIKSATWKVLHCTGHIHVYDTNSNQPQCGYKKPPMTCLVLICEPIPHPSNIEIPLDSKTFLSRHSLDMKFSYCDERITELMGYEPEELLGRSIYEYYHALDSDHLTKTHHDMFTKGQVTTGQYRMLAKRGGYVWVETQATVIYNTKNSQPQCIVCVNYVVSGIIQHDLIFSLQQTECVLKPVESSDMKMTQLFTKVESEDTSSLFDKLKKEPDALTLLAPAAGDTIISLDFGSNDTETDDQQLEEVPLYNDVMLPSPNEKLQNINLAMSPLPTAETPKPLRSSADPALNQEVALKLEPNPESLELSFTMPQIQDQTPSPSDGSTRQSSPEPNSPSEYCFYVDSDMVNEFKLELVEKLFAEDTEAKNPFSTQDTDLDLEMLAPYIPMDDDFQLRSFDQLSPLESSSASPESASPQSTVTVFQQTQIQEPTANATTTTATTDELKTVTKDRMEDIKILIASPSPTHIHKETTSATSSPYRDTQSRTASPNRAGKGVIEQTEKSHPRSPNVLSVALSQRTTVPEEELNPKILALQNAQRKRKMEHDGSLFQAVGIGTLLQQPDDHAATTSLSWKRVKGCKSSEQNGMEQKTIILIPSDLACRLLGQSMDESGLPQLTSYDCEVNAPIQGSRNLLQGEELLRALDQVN

PARP = molecular target: T1, PARP (Homo sapiens, UniProt P09874); conditions: caspase-3 null MCF-7 cells; cited from earlier work
T1 construct: on PARP activity has been determined in caspase-3 null MCF-7 cells; host or cells: MCF-7
T1 sequence (P09874 whole entry): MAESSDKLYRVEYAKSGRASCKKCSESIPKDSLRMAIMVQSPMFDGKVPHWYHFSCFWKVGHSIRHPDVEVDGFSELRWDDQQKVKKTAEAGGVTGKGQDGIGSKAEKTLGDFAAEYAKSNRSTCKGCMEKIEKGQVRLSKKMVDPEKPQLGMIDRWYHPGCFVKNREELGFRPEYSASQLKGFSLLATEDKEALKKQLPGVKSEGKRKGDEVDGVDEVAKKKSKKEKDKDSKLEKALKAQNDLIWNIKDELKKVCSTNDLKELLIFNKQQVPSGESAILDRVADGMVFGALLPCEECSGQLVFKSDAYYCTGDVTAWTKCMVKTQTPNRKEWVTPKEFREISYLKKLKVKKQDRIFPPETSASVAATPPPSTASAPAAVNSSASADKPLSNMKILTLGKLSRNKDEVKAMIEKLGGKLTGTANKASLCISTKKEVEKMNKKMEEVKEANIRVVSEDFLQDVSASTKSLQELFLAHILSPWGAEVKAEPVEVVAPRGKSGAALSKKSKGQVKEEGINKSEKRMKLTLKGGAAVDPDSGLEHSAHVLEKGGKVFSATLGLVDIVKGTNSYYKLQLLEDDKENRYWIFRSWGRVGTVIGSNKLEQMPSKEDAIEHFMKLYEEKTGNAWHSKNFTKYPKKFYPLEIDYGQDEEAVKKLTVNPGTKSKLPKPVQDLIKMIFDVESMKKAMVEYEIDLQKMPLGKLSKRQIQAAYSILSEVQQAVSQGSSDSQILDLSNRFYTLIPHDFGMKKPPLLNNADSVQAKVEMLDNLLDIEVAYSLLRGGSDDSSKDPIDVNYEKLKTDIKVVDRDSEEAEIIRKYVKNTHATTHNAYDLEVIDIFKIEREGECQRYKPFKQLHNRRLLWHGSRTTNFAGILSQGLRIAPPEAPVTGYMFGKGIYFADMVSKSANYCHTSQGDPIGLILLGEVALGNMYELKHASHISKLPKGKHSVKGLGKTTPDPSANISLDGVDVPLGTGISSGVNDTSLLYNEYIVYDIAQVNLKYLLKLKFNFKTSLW

[4] = Alkaline hydrolysis at pH 11 followed by NMR; format: physicochemical
Method: Organic products of the hydrolysis of 1 and 2 were quantified by integrating their NMR spectra. For pH 7.4, 3.9 mM solutions in 0.1 M phosphate buffer were employed. For pH 11, 4.9 mM solutions of 1 and 2 in 50 mM sodium carbonate were studied. Samples were run on a Varian Inova 400 MHz NMR with a Dell Precision 390 workstation. The samples were run at 37° C. and water suppression was achieved by using the preset pulse sequence. Peaks were identified by comparison with authentic standards.
Differences in time course as well as stoichiometry in the alkaline hydrolysis of 1 and 2 also matched the expectation based on the HNO/NO yield and rate data. […] Compound 2, on the other hand, completely dissociated within 5 min at 37° C. in a pH 11 carbonate buffer. […] However, the amine was undetectable.

porcine liver esterase = assay: Esterase-catalyzed hydrolysis; format: in vitro ADME
Method: FIGS. 4A-C are graphs illustrating spontaneous hydrolysis (FIGS. 4A and 4B) and esterase-catalyzed hydrolysis (FIG. 4C) of 2 in an embodiment of the invention. In FIG. 4A, spectra were collected every 60 s (10-min intervals shown) after dissolving 2 in PBS (pH 7.4) at 37° C., and only loss of the parent compound was observed. In FIG. 4B, the pH was elevated to 12, and scans were collected every 0.5 s (through 2.5 s and 3.5, 5.5, 9.5, and 54.5 shown). In FIG. 4C, porcine liver esterase (20 μL in 3 mL) was added (pH 7.4), and spectra were collected every 10 s. Hydrolysis of 2 (λmax 236 nm) to 1 (λmax 250 nm) was complete within 40 s (0.067 s^−1) under these conditions. […] Elevation of the intensity near 200 nm indicated formation of autoxidation products such as nitrite. Deaeration inhibited this peak (data not shown).
(§1) The rate constants of decomposition were measured spectrophotometrically by monitoring the decrease in absorbance of peaks at ^˜240-250 nm characteristic of the diazeniumdiolate functionality. The hydrolysis medium consisted of the metal chelator diethylenetriaminepentaacetic acid (DTPA, 50 μM) in calcium- and magnesium-free Dulbecco's phosphate-buffered saline (PBS, pH 7.4). UV-visible spectroscopy was performed with a Hewlett-Packard 8453 diode-array spectrophotometer equipped with Agilent 89090A thermostat set to 37° C. The spectrophotometer was blanked after warming the cuvette containing buffer at the appropriate pH in the instrument heat block for 5 min. For esterase-containing reactions, porcine liver esterase (20 μL; Sigma; suspension in 3.2 M (NH4)2SO4, pH 8) was added to the reaction buffer before blanking. Upon addition of IPA/NO (1) or AcOM-IPA/NO (2) (≤10 μL of stock), the cuvette was capped and inverted to mix. Spectra were collected at 0.5- to 60-s intervals for time periods of 2-120 min or until A∞<0.05. Kinetic analysis was performed by fitting the data to an exponential decay (A=ΔAe^−kt+A∞) using KaleidaGraph v.3.1.

MDA-MB-231 cells = assay: Oxidation of DCF (oxidant level) in cells; format: cell-based, human; conditions: 100 μM, 37° C., MDA-MB-231 as representative example
Method: DCF loaded cells were treated with IPA/NO-aspirin (blue), DEA/NO-aspirin (green), IPA/NO (magenta), DEA/NO (brown), aspirin (red) or DMSO (0.1%; black) at 37° C., and the fluorescence at 535 nm was measured in a time-dependent manner. Data are plotted as mean±SD (n=4).

[5] = Decomposition kinetics by UV spectrophotometry in PBS; format: physicochemical; conditions: for pH dependence of hydrolysis rate: 37° C.
Method: FIGS. 3A and 3B are graphs illustrating the pH-dependence of the rate constant of decomposition of (FIG. 3A) 1 (100 or 200 μM) and (FIG. 3B) 2 (100 μM) at 37° C. in PBS containing 50 μM DTPA measured at 250 nm (mean±SEM, n≥3).
as §1

BCL-2 = BCL-2 expression; format: cell-based; conditions: FIG. 18
[6] = tested on: various cancer cells lines; conditions: read-out: IC50 (cytotoxicity); cited from earlier work
MDA-MB-231 xenografts = assay: MDA-MB-231-GFP xenograft growth and brain metastasis in nude mice; format: in vivo; conditions: daily injection of equimolar doses for five weeks, vs control
Method: The cells were allowed to grow for 14 d, and the animals (40) were randomly divided into four groups (control, aspirin, IPA/NO-aspirin or DEA/NO-aspirin). Treated groups were injected daily with equimolar doses of DEA/NO-aspirin or IPA/NO-aspirin (16 mg kg^−1) or aspirin (9 mg kg^−1)) or with DMSO for the next five weeks.
For examples utilizing mouse tumor model methods, the following procedure was instituted. Analysis of tumor growth was carried out using protocols approved by the Committee on the Ethics of Animal Experiments of the National Cancer Institute (RBB-144) and adhered with the recommendations in the United States National Research Council's “Guide for the Care and Use of Laboratory Animals,” the United States Public Health Service's “Guide for the Care and Use of Laboratory Animals” and the “Policy on Humane Care and Use of Laboratory Animals”. The vivarium was maintained at 23° C. on a 12 h light/12 h dark cycle with ad libitum access to food and water. Nude mice (n=40) under general anesthesia were implanted with 7.5×10^5 MDA-MB-231 cells transfected with GFP by injection underneath the fourth left mammary gland. Prior to implantation, pedal withdrawal and eyelid reflexes were examined to ensure that mice were under stage III of anesthesia. At 14 days post-inoculation, the mice were randomly divided into four groups and treated by daily injection of equimolar doses (10 μL of 100 mM stock) of aspirin (9.00 mg kg^−1), IPA/NO-aspirin (15.8 mg kg^−1) or DEA/NO-aspirin (16.3 mg kg^−1) or with vehicle (DMSO). After five weeks, the tumor size was measured using in vivo fluorescent imaging for quantification of the GFP tag. In brief, mice were under general anesthesia throughout the whole body imaging process, and GFP signals were captured and quantified in an Xenogen IVIS 100 Imaging System according to the manufacturer's protocol. To assess metastasis in the brain, the animals were subsequently sacrificed following the approved method and guidelines.

ER-α = ER-α levels (mRNA of ER1) in ER-α(−) cells; format: cell-based; conditions: FIG. 20
MB-231 cells = assay: cells; conditions: Homo sapiens, 48 h
Method: In this example, a 3-(4,5-dimethylthiazol-2-yl)-2,5-diphenyltetrazolium bromide (MTT)viability assay was used to evaluate combination therapy to on the cytotoxicity of cancer cells using compound embodiments.
Cells were plated at 8,000-10,000 cells per well in a 96-well plate and grown overnight. […] Thereafter, 10 μL of 5 mg/mL MTT was added to each well, and the plate was incubated for 1 hour at 37° C. After removal of the media, 100 μL of DMSO was added to each well, and the absorbance was recorded at 550 nm. Growth inhibition is reported as the percentage of the corresponding control.

[7] = porcine liver esterase 20 μL in 3 mL, pH 7.4

SMILES: [Na+].[Na+].[O-][N+]([O-])=NO [Angeli's salt, Na2N2O3]
angiogenesis [1]: inhibited angiogenesis
tumor growth (MDA-MB-231 xenograft): some inhibition of tumor growth
serum VEGF levels [2]: decreased
HIF 1α [3]: inhibited
inhibitory effect on PARP activity (PARP): rapid, but required rather high concentrations of donor

hydrolysis at pH 11 ([4]; pH 11): hydrolyzed slowly
hydrolysis rate relative to 2 (more slowly) ([4]; pH 11): 100 fold
rate of decay of 1 (porcine liver esterase; 1 formed from 2 with esterase, pH 7.4 (FIG. 4C)): 0.0033 s⁻¹
rate of decay of 1 ([5]; PBS with 50 μM DTPA, 37° C. (FIG. 3A)): 0.0012 s⁻¹
SMILES: CC(C)N[N+]([O-])=N[O-].[Na+] [Compound 1, O^2-Sodium 1-(N-Isopropylamino)diazen-1-ium-1,2-diolate, reference compound]
oxidation of DCF (fluorescence intensity) (MDA-MB-231 cells): oxidized DCF, but to a much reduced extent
pH dependence of hydrolysis rate ([5]; PBS with 50 μM DTPA): slowed as the pH was increased from 3 to 10, with a small increase in rate thereafter

SMILES: CC(=O)OCO/N=[N+](\[O-])NC(C)C [Compound 2, O^2-(acetoxymethyl)1-(isopropylamino)diazen-1-ium-1,2-diolate]
time to complete dissociation ([4]; 37° C., pH 11 carbonate buffer): ≤ 5 min
rate of hydrolysis of 2 to 1 (porcine liver esterase; [7]): 0.067 s⁻¹
time to complete hydrolysis of 2 to 1 (porcine liver esterase; [7]): ≤ 40 s
pH dependence of hydrolysis rate ([5]; PBS with 50 μM DTPA): essentially first order in hydroxide ion concentration between pH 5 and 11
hydrolysis rate relative to 1 ([5]; physiological pH): an order of magnitude slower

SMILES: CCN(CC)[N+]([O-])=N[O-].[Na+] [DEA/NO, O^2-Sodium 1-(N,N-Diethylamino)diazen-1-ium-1,2-diolate]
oxidation of DCF (fluorescence intensity) (MDA-MB-231 cells): oxidized DCF, but to a much reduced extent
inhibitory effect on PARP activity (PARP): rapid, but required rather high concentrations of donor

SMILES: CC(=O)Oc1ccccc1C(=O)O [aspirin, reference compound]
BCL-2 expression (BCL-2): induce BCL-2 expression
IC50 [6]: > 1000 µM
oxidation of DCF (fluorescence intensity) (MDA-MB-231 cells): ineffective compared to control
size of the primary tumor (GFP fluorescence intensity, tumor mass) (MDA-MB-231 xenografts): did not significantly decrease
ER-α levels (ER-α): increases ERα levels

SMILES: CC/C(=C(\c1ccccc1)c1ccc(OCCN(C)C)cc1)c1ccccc1 [tamoxifen]
viability at 10 µM (MB-231 cells): 76%

Reference: patent US10213445B2, “Compositions and methods of diazeniumdiolate-based prodrugs for treating cancer” (ARIZONA BOARD OF REGENTS ON BEHALF OF THE UNIVERSITY OF …, priority 2014, dated 2019)
